Results reported in patent US5204345A, “6-epifumagillols and the pharmaceutical use thereof” (Takeda Chemical Industries, Ltd., priority 1989, dated 1993).
Values after ≈ are worked out from the molar mass of the structure shown. Read-outs that look alike come from different tables or passages of the source. Values belong to the molecule of their own block, whether it stands above or below them.

Assays:
[1] = system: bFGF-induced angiogenesis; test: rat cornea micropocket method, angiogenesis inhibitory activity; assay type: in vivo, rat (Sprague-Dawley); conditions: number of rats with angiogenesis inhibitory activity relative to number tested; sample 20 ug pellet, bFGF 250 ng, 10 days
Description: The object compounds (I) obtained in the Examples given below were evaluated for angiogenesis inhibitory activity by the rat cornea micropocket method. Method of Evaluation:
Essentially the same method of Gimbrone et al. [J. National Cancer Institute, 52, 413-419 (1974)] was followed. Thus, adult male Sprague-Dawley rats (11 to 16 week old) were anesthetized with nembutal and locally anesthetized by instillation of xylocaine eyedrops onto the eyeball. The cornea was incised to a length of about 2 mm at about 2 mm inside from the corneal circumference by means of an injection needle, and a basic fibroblast growth factor (bFGF; bovine brain-derived, purified product; R & D Inc.) and a sustained release pellet containing the test sample were inserted side by side into the incision so that the bFGF pellet was located on the central side in the cornea. In the control group, the bFGF pellet and a sample-free pellet were inserted into the cornea. After 10 days, the cornea was observed under a stereoscopic microscope.
The sustained release pellets were prepared in the following manner. An ethylene-vinyl acetate copolymer (Takeda Chemical Industries, Ltd.) was dissolved in dichloromethane to a concentration of 8%. A 3 μl portion of the solution was air-dried on a glass dish, an aqueous solution of bFGF (250 ng) was then placed thereon and air-dried and, finally 3 μl of the above ethylene-vinyl acetate copolymer solution was placed further thereon and air-dried to give a sandwich sheet. This sandwich sheet was made round into a bFGF pellet. The test sample pellets were prepared by dissolving each sample in ethanol in a concentration of 20 ug/2 μl, mixing the solution with 6 μl of an ethylene-vinyl acetate copolymer solution, air-drying the mixed solution in a glass dish and making the thus-obtainedsheet round.
In the Table 1 above, the inhibitory rate means the number of rats on which angiogenesis inhibitory activity was observed relative to the number of rats tested.

[2] = system: human umbilical vein endothelial cells; test: inhibition of human umbilical vein endothelial cell growth (MTT); assay type: cell-based; conditions: 120 h, rFGF 2 ng/ml, 5-day culture, MTT OD590, read-out: IC50, inhibiting endothelial cell growth
Description: Evaluation of inhibition of human umbilical vein endothelial cell growth
Human umbilical vein endothelial cells were isolated by perfusion of an umbilical vein with a trypsin-containing medium. The cells were cultured in sequence in GIT medium (Daigo Eiyo Kagaku) supplemented with 2.5% fetal bovine serum and 2.0 ng/ml or recombinant human fibroblast growth factor (hereinafter simply referred to rFGF, prepared at Biotechnology Research Laboratories, Takeda Chemical Industries, Ltd.).
A suspension of human vein endothelial cells at the cell density of 2×10^3 (100 μl) was seeded on 96-well incubation plate (Nunc, 1-67008), and incubation was conducted in a gas-controlled thermostat vessel. The following day, 100 μl of medium containing rFGF (2 ng/ml at the final concentration) and samples of various concentrations were added. […] After 5-day culture, the culture solution containing samples was removed by suction, 100 μl of 1 mg/ml of MTT solution [3-(4,5-dimethyl-2-thiazolyl)-2,5-diphenyl-2H-tetrazolium bromide was dissolved in the culture solution] was added and kept warm it about 40° C. for 4 hours. Then, 100 μl of a 10% SDS solution (aqueous solution of sodium dodecyl sulfate) was added, and the mixture was kept warming for 5-6 hours. The cells and MTT pigment were solubilized, and the OD590 value was measured using a spectrophotometer.

[3] = system: spleen cells from BALB/c and C57BL/6 mice; test: 3H-thymidine uptake induced by the mixed lymphocyte reaction of spleen cells; assay type: cell-based, mouse (BALB/c and C57BL/6); conditions: Mus musculus, in vitro
[4] = system: T cell dependent immunoglobulin production; test: antibody production induced by pokeweed mitogen (T cell dependent B cell mitogen); assay type: cell-based; conditions: in vitro
Text: (§1) The effects of compounds 5 and 8 on the antibody production induced by pokeweed mitogen, a T cell dependent B cell mitogen, and Epstein Barr virus, a T cell independent B cell mitogen, were examined.

[5] = system: T cell independent antibody production; test: antibody production induced by Epstein Barr virus (T cell independent B cell mitogen); assay type: cell-based; conditions: in vitro
Text: as §1

[6] = system: anti-bovine gamma globulin antibody titer; test: anti-bovine gamma globulin antibody titer in immunized mice; assay type: in vivo, mouse (BALB/c); conditions: for Anti-bovine gamma globulin antibody titer, suppression: 20 mg/kg i.p. every 2 days, sera 3 weeks after immunization, words; for Anti-bovine gamma globulin Ab titer: percentage against reference group injected with saline, compounds 5 and 8: 20 mg/kg i.p. every 2 days, 3 weeks
Description: Anti-bovine gamma globulin antibody titer was assayed in sera obtained 3 weeks after the immunization.

[7] = system: germinal center formation and plasma cell induction in the spleen; test: histological study in the spleen of mice immunized with sheep red blood cells; assay type: in vivo, mouse (BALB/c); conditions: compounds 5 and 8: 100 mg/kg i.p. once a day for 4 days; day 6 after immunization; words
thymus and spleen weight = assay type: in vivo, mouse (BALB/c); conditions: for Spleen weight / Thymus weight: percentage against reference group injected with saline; for reduction of spleen weight: words
Description: and spleen were represented as percentages against those of a reference
group which were injected with saline.

[8] = Lymphocyte, Table 3, read-out: Mixed lymphocyte reaction, concentration which showed 50% inhibition
[9] = mixed lymphocyte reaction, read-out: 50% inhibition of 3H-thymidine uptake, concentration
[10] = Table 3, read-out: T dependent Ab production, concentration which showed 50% inhibition
[11] = pokeweed mitogen, read-out: 50% suppression of T cell dependent immunoglobulin production, concentration
[12] = Epstein Barr virus, read-out: 50% suppression of T cell independent antibody production, concentration
[13] = Table 3, read-out: T independent Ab production, concentration which showed 50% inhibition

Compound: CO[C@@H]1[C@@H](OC=O)CC[C@]2(CO2)[C@H]1[C@@]1(C)O[C@@H]1CC=C(C)C [Example 1, 6-O-formyl-6-epifumagillol]
Inhibitory Rate [1]: 3/7
IC50 [2]: < 0.08 ng/mL

Compound: CO[C@@H]1[C@@H](O)CC[C@]2(CO2)[C@H]1[C@@]1(C)O[C@@H]1CC=C(C)C [Example 2, 6-epifumagillol]
Inhibitory Rate [1]: 3/7
IC50 [2]: < 0.08 ng/mL

Compound: CO[C@@H]1[C@@H](OC)CC[C@]2(CO2)[C@H]1[C@@]1(C)O[C@@H]1CC=C(C)C [Example 3, 6-O-methyl-6-epifumagillol]
IC50 [2]: 9.82 ng/mL (≈ 33.1 nM)

IC50 [3, 8]: 300 nM
IC50 [3, 9]: 300 nM
IC50 [5, 12]: 30 nM
IC50 [5, 13]: 30 nM
Compound: CO[C@@H]1[C@@H](OC(C)=O)CC[C@]2(CO2)[C@H]1[C@@]1(C)O[C@@H]1CC=C(C)C [Example 5, 6-O-acetyl-6-epifumagillol]
Inhibitory Rate [1]: 4/8
IC50 [2]: 1.91 ng/mL (≈ 5.89 nM)
IC50 [4, 10]: 7000 nM
IC50 [4, 11]: 7000 nM
Anti-bovine gamma globulin antibody titer, suppression [6]: significant suppression
Anti-bovine gamma globulin Ab titer [6]: 13%
formation of germinal center in the spleen [7]: suppressed the formation of germinal center
induction of plasma cells in the spleen [7]: suppressed
Spleen weight (thymus and spleen weight): 57%
Thymus weight (thymus and spleen weight): 105%
reduction of spleen weight (thymus and spleen weight): reduction of spleen weight was observed

Compound: CO[C@@H]1[C@@H](OC(=O)c2ccccc2)CC[C@]2(CO2)[C@H]1[C@@]1(C)O[C@@H]1CC=C(C)C [Example 6, 6-O-benzoyl-6-epifumagillol]
Inhibitory Rate [1]: 6/6
IC50 [2]: 2.05 ng/mL (≈ 5.3 nM)

Compound: CO[C@@H]1[C@@H](OC(=O)CCC(=O)O)CC[C@]2(CO2)[C@H]1[C@@]1(C)O[C@@H]1CC=C(C)C [Example 7, 6-O-(3-carboxypropionyl)-6-epifumagillol]
Inhibitory Rate [1]: 5/6
IC50 [2]: 8.71 ng/mL (≈ 22.8 nM)

IC50 [3, 8]: 400 nM
IC50 [3, 9]: 10 nM
IC50 [5, 12]: 1 nM
IC50 [5, 13]: 1 nM
Compound: CO[C@@H]1[C@@H](OC(=O)Oc2ccccc2)CC[C@]2(CO2)[C@H]1[C@@]1(C)O[C@@H]1CC=C(C)C [Example 8, 6-O-phenoxycarbonyl-6-epifumagillol]
Inhibitory Rate [1]: 5/7
IC50 [2]: 0.166 ng/mL (≈ 0.412 nM)
IC50 [4, 10]: 4000 nM
IC50 [4, 11]: 4000 nM
Anti-bovine gamma globulin antibody titer, suppression [6]: significant suppression
Anti-bovine gamma globulin Ab titer [6]: 9%
formation of germinal center in the spleen [7]: suppressed the formation of germinal center
induction of plasma cells in the spleen [7]: suppressed
Spleen weight (thymus and spleen weight): 60%
Thymus weight (thymus and spleen weight): 116%
reduction of spleen weight (thymus and spleen weight): reduction of spleen weight was observed

Compound: CO[C@@H]1[C@@H](OC(N)=O)CC[C@]2(CO2)[C@H]1[C@@]1(C)O[C@@H]1CC=C(C)C [Example 9, 6-O-carbamoyl-6-epifumagillol]
IC50 [2]: 0.1 ng/mL (≈ 0.307 nM)

Compound: CO[C@@H]1[C@@H](OC(=O)N2CCOCC2)CC[C@]2(CO2)[C@H]1[C@@]1(C)O[C@@H]1CC=C(C)C [Example 11, 6-O-morpholinocarbonyl-6-epifumagillol]
IC50 [2]: 4.68 ng/mL (≈ 11.8 nM)

Compound: CO[C@@H]1[C@@H](OS(C)(=O)=O)CC[C@]2(CO2)[C@H]1[C@@]1(C)O[C@@H]1CC=C(C)C [Example 12, 6-O-methanesulfonyl-6-epifumagillol]
Inhibitory Rate [1]: 3/4
IC50 [2]: 6.5 ng/mL (≈ 18 nM)
